Measured values published in US9539237B2, “Compositions and methods for drug-sensitization or inhibition of a cancer cell” (The Texas A&M University System, priority 2012, dated 2017).
Numbered stars: 1 amine (or outer) side, 2 acyl side, 3 side chain; on linkers, the order of the positions; unused ones are H or OH. Bridge positions count the residues as written; N and C are the ends. Square brackets hold non-standard residues; d marks the D form. Peptide text beside a SMILES is read from it. I, II: the chains in the order shown. Actinocin(9to1) = Cc1c2oc3c(C)ccc(C(=O)[*:1])c3nc-2c(C(=O)[*:2])c(N)c1=O; NMeV = CN[C@H](C(=O)O)C(C)C; Sar = CNCC(=O)O

Assays:
[1] = tested on: CHOP-resistant G3 NHL cells; assay: Cell growth assay (resazurin fluorescence) on G3 cells; format: cell-based, human; settings: G3
Protocol: Compositions were tested on CHOP-resistant G3 NHL cells that had been cultivated in RPMI medium for five days. Prior to assay, the cells were counted by haemocytometer and cell concentration standardized to 625,000 cells/ml. Test drugs were solubilized in 100% DMSO and then diluted to final assay concentration with 0.1M phosphate buffered saline (PBS) and a final DMSO concentration of 0.5%. […] The metabolic dye rezasurin was added to the wells of the assay plate at a final concentration of 20 μg/ml and the plates were incubated for an additional 24 hours. The plates were then read in a BMG Polarstar plate reader at wavelength (573-605) and the data plotted as OD versus increasing dilutions (i.e., decreasing total amounts) of rifabutin derivative concentration.
(§1) In these experiments, the following cell lines were used: CHOP-resistant NHL cell line G3, CHOP-sensitive NHL cell line CRL2631, the multi-drug resistant sarcoma cell line MES-SA-Dx5; multi-drug-resistant breast cancer cell line MDA-MB-231, multi-drug resistant ovarian carcinoma cell line SK-OV3, multi-drug resistant ovarian cancer cell line NCI/ADR-RES, drug-sensitive ovarian cancer cell line OVCAR-5, and multi-drug resistant ovarian cancer cell line OVCAR-3. […]

[2] = tested on: multi-drug resistant sarcoma cell line MES-SA-Dx5; assay: Cell growth assay on MES-SA-Dx5 cells; format: cell-based
Excerpt: (§2) In these experiments, the following cell lines were used: CHOP-resistant NHL cell line G3, CHOP-sensitive NHL cell line CRL2631, the multi-drug resistant sarcoma cell line MES-SA-Dx5; multi-drug-resistant breast cancer cell line MDA-MB-231, multi-drug resistant ovarian carcinoma cell line SK-OV3, multi-drug resistant ovarian cancer cell line NCI/ADR-RES, drug-sensitive ovarian cancer cell line OVCAR-5, and multi-drug resistant ovarian cancer cell line OVCAR-3.
(§3) Additional cell lines used include: ovarian cancer OVCAR-8. T lymphoblastoid leukemia MOLT-4, dexamethasone-resistant multiple myeloma MM.1R, myeloid leukemia cells HL-60, osteosarcoma cells U-2 OS, and myeloma RPMI 8226.

[3] = tested on: multi-drug-resistant breast cancer cell line MDA-MB-231; assay: Cell growth assay on MDA-MB-231 cells; format: cell-based
Excerpt: as §2, §3

[4] = tested on: multi-drug resistant ovarian carcinoma cell line SK-OV3; assay: Cell growth assay on SK-OV3 cells; format: cell-based, human
Excerpt: as §1

[5] = tested on: multi-drug resistant ovarian cancer cell line OVCAR-3; assay: Cell growth assay on OVCAR-3 cells; format: cell-based
Excerpt: as §2, §3

[6] = tested on: drug-sensitive ovarian cancer cell line OVCAR-5; assay: Cell growth assay on OVCAR-5 cells; format: cell-based
Excerpt: as §2, §3

[7] = tested on: multi-drug resistant ovarian cancer cell line NCI/ADR-RES; assay: Cell growth assay on NCI/ADR-RES cells; format: cell-based
Excerpt: as §2, §3

[8] = mice treated with RTI-79 with or without DOX
Protocol: Swiss mice were dosed with levels equal to and exceeding that of intended doses.

[9] = tested on: multi-drug resistant ovarian cancer cell line (NCI/ADR-RES) xenografts; assay: NCI/ADR-RES xenograft efficacy studies in nude mice; format: in vivo; settings: DOXIL 7 mg/kg i.v. + RTI-79 25 mg/kg oral
Excerpt: In a sixth efficacy study, we generated xenografts of multi-drug resistant ovarian cancer cell line (NCI/ADR-RES) by implantation of NCI/ADR-RES cell xenografts in the left and right flanks of nude mice, resulting in two tumors per mice. […] Tumor size was monitored.
In a seventh efficacy study, we generated xenografts of multi-drug resistant ovarian cancer cell line (NCI/ADR-RES) by implantation of NCI/ADR-RES cells xenografts in the left and right flanks of nude mice, resulting in two tumors per mouse. […] Tumor size was monitored.

total intracellular ROS = assay: Intracellular ROS by CellROX staining and flow cytometry; format: cell-based
Excerpt: Cells were then stained with the fluorescent ROS indicator, CellROX, and subjected to flow cytometry to quantitate total intracellular ROS.
The electron transport chain (ETC) is known to be a primary generator of ROS in the cell. Most of the ROS is generated by Complexes I and III of the ETC. Inhibition of Complex I results in electrons piling up and leaking to react with oxygen to produce ROS.
(§4) MDR/P-gp activity is closely associated with calcium status in the cell, so calcium modulators were tested for effects on ROS. […] Relatively Dox-sensitive lymphoma (CRL2631, 10S, WSU) and ovarian carcinoma (OVCAR8) and more Dox-resistant lymphoma (G3R, 10R, WSUR) and ovarian carcinoma (ADR) were treated with 10 uM […] for 2 hrs. […] Cells were co-stained with the cell-permeable red fluorescent ROS indicator, CellROX, and cell-permeable green fluorescent calcium indicator. Fluo-4AM, and then subjected to flow cytometry to quantitate changes in ROS and calcium levels.
(§5) All samples were analyzed at the same time in flow cytometry.

calcium mobilization = assay: Calcium mobilization by Fluo-4AM staining and flow cytometry; format: cell-based; settings: G3 cells, 10 uM RTI-79
Protocol: as §4, §5

MMP2 = MMP2 secretion ELISA in U2-OS cells; format: cell-based; settings: 5 uM RTI-79
VEGF = VEGF secretion ELISA in U2-OS cells; format: cell-based; settings: RTI-79
[10] = tested on: primary human fibroblasts; assay: Comparative cytotoxicity on primary human fibroblasts; settings: FIG. 3A and 3B
[11] = Pharmacokinetics (plasma concentration, half-life, tissue absorption); settings: after administration
[12] = tested on: T lymphoblastoid leukemia MOLT-4; assay: Cell growth assay on MOLT-4 cells; format: cell-based; settings: with Rifabutin vs drug alone
Excerpt: as §3

Compound | Magnitude of potentiation in combination with doxorubicin [1] | Magnitude of potentiation in combination with doxorubicin [2] | Magnitude of potentiation in combination with doxorubicin [3] | Magnitude of potentiation in combination with doxorubicin [4] | Magnitude of potentiation in combination with doxorubicin [5] | Magnitude of potentiation in combination with doxorubicin [6] | Magnitude of potentiation in combination with doxorubicin [7] | Heart tissue histology (H&E) and complete blood count and manual differential [8] | Tumor volume lower than in mice receiving only DOXIL ([9]; seventh study, after 46 days) [%] | Tumor volume reduction during the course of the study ([9]; seventh study) [%] | Tumor volume lower than in mice receiving only DOXIL ([9]; sixth study, after 41 days) [%] | Time after exposure at which increases in ROS were seen (total intracellular ROS; G3 cells, 10 uM RTI-79) [min] | Induction of ROS (total intracellular ROS; OVCAR8, ADR-RES and G3 cells, 2 hrs, 10 uM, FIG. 38) | Time of treatment before calcium mobilization occurred (calcium mobilization) [min] | MMP2 secretion (MMP2) [ng/million cells] | VEGF secretion (VEGF) [pg/million cells] | Toxicity to normal cells [10] | Time to maximal plasma concentration [11] [h] | Fold increase in potency ([2]; with Rifabutin vs drug alone) [fold] | Fold increase in potency [12] [fold]
4-deoxy-3,4[2-spiro-[1-(isobutyloxycarbonyl)-piperidin-4-yl]]-(1H)-imidazo-(2,5-dihydro)rifamycin S [RTI-79] | ++ (++ potentiation between 2.1 to 5 fold increase) | ++ (++ potentiation between 2.1 to 5 fold increase) | + (+ potentiation between 1.2 to 2.0 fold increase) | +++ (+++ potentiation greater than 5 fold increase) | + (+ potentiation between 1.2 to 2.0 fold increase) | + (+ potentiation between 1.2 to 2.0 fold increase) | ++ (++ potentiation between 2.1 to 5 fold increase) | no significant differences | 55 | 50 | 66 | 1 | induced ROS | > 15 | 10.5 | 436 | not toxic | ≤ 3 |  | 
Cc1c2oc3c(C)ccc(C(=O)N[C@@H]4C(=O)N[C@H](C(C)C)C(=O)N5CCC[C@H]5C(=O)N(C)CC(=O)N(C)[C@@H](C(C)C)C(=O)O[C@@H]4C)c3nc-2c(C(=O)N[C@@H]2C(=O)N[C@H](C(C)C)C(=O)N3CCC[C@H]3C(=O)N(C)CC(=O)N(C)[C@@H](C(C)C)C(=O)O[C@@H]2C)c(N)c1=O [Actinomycin D, actinomycin D, reference compound] (I: T[dV]P[Sar][NMeV] / II: T[dV]P[Sar][NMeV]; ester I:1-I:C, II:1-II:C; linker I:N-II:N via Actinocin(9to1)) |  |  |  |  |  |  |  |  |  |  |  |  |  |  |  |  |  |  | 3 | >5
